Earlier results as cited in patent publication US20150141462A1, “PHARMACEUTICAL COMPOSITIONS AND METHODS FOR TREATING DRUG ADDICTION AND PREVENTING A DRUG RELAPSE” (priority 2012, published 2015).

Assays:
[1] = not given; remark: listed apart in the source
[2] = test system: animal models of addiction; settings: mGluR5 antagonists

Compound | extinction of cocaine-induced conditioned place preference (rats) | cocaine-seeking behavior (following intravenous self-administration) | reacquisition of cocaine self-administration (in vivo) | reinstatement ([1]; following methamphetamine self-administration) | extinction following methamphetamine self-administration ([1]; in vivo) | self-administration of drugs of abuse [2]
N#Cc1cccc(C(=O)Nc2cc(-c3ccccc3)nn2-c2ccccc2)c1 [CDPPB, 3-cyano-N-(1,3-diphenyl-1H-pyrazol-5-yl)benzamide] | enhances extinction | reduces cocaine-seeking behavior | deters the reacquisition | reduced reinstatement slightly | improved extinction | –
Cc1cccc(C#Cc2ccccc2)n1.Cl [MPEP, 2-methyl-6-(phenylethynyl)pyridine hydrochloride] | – | – | – | – | – | reduce self-administration of virtually all drugs of abuse
Cc1nc(C#Cc2cccnc2)cs1 [MTEP, 3-((2-methyl-4-thiazolyl)ethynyl)pyridine] | – | – | – | – | – | reduce self-administration of virtually all drugs of abuse
